# Source: PubChem BioAssay (NCI)
#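 Assay format: 96-well plates, 48-hour exposure. TGI: concentration producing complete growth inhibition.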
# Columns and labels:
# Assay in all cases: NCI anticancer screen, dose series, 48 h
# HOP-92 NSCLC = tested on: HOP-92 NSCLC
# MALME-3M melanoma = tested on: MALME-3M melanoma
# PC-3 prostate = tested on: PC-3 prostate
# HCT-116 colon = tested on: HCT-116 colon
# SF-295 CNS = tested on: SF-295 CNS
# UACC-257 melanoma = tested on: UACC-257 melanoma
# OVCAR-8 ovarian = tested on: OVCAR-8 ovarian
# SF-539 CNS = tested on: SF-539 CNS
# SK-MEL-2 melanoma = tested on: SK-MEL-2 melanoma
# NCI-H226 lung = tested on: NCI-H226 lung
SMILES,TGI (HOP-92 NSCLC) [µM],TGI (MALME-3M melanoma) [µM],TGI (PC-3 prostate) [µM],TGI (HCT-116 colon) [µM],TGI (SF-295 CNS) [µM],TGI (UACC-257 melanoma) [µM],TGI (OVCAR-8 ovarian) [µM],TGI (SF-539 CNS) [µM],TGI (SK-MEL-2 melanoma) [µM],TGI (NCI-H226 lung) [µM]
CCOC(=O)n1c(=O)nc2c3c(ncn21)Oc1c(c(-c2ccccc2)nn1-c1ccccc1)C3c1ccc(Cl)cc1 (stereo not given),2.85,3.24,3.1,2.82,3.26,3.42,3.06,2.9,3.23,2.99
CCO/C=N\C1=C(C#N)SC2=N/C(=C\c3ccco3)C(=O)N21,> 100,> 100,> 100,> 100,> 100,> 100,> 100,> 100,> 100,> 100
CN(C)CCC(C#N)(c1ccccc1)c1ccccc1,66.6,> 100,> 100,> 100,> 100,59.2,> 100,> 100,> 100,> 100
Cc1c(CNc2ccc(Cl)c(Cl)c2Cl)cnc2nc(N)nc(N)c12,> 62.8,> 100,> 49,1.55,3.16,> 55.4,1.41,12.2,> 90,> 100
COC1=C(OC)C(=O)c2cc(C)c(=O)c(C)cc2C1=O,30.4,30.8,49.6,28.9,48.5,25.6,35.7,33.1,36.8,39.3
COc1cccc(O)c1-c1cc(=O)c2c(O)c(OC)c(OC)c(OC)c2o1,82.8,> 100,66.7,> 100,76.6,80.5,> 100,> 100,52.4,> 100
O=c1[nH]nc(Nc2ccc(Cl)cc2)c2nnn(-c3ccc([N+](=O)[O-])cc3)c12,46.9,> 100,68.8,42.4,> 100,> 100,48,39.6,82.2,> 100
CC(=O)OCC1OC(NC(=S)Nn2c(-c3ccccc3)nc3ccccc3c2=O)C(OC(C)=O)C(OC(C)=O)C1OC(C)=O (stereo not given),> 100,> 100,> 100,> 100,> 100,> 100,> 100,> 100,68.3,> 100
Cc1nnc(NS(=O)(=O)c2ccc(N=Nc3c(O)c(C(=O)O)cc4ccccc34)cc2)s1,> 100,> 100,> 100,> 100,> 100,> 100,> 100,> 100,> 100,> 100
NC(C(=O)O)C(O)c1cnc[nH]1 (stereo not given),> 100,> 100,> 100,> 100,> 100,> 100,> 100,> 100,> 100,> 100
NCCCc1nonc1C(=O)O,> 100,> 100,> 100,> 100,> 100,> 100,> 100,> 100,> 100,> 100
O=C1C/C(=C\c2ccccc2)C(=O)c2ccccc2N1,60.7,34.2,50.1,29.3,36.8,48.6,39.1,39.4,60.6,80.4
CC(=O)C1=C(C)N2C(=NC3=C(CCc4ccccc43)C2c2ccc(Cl)cc2)S1 (stereo not given),> 100,> 100,> 100,> 100,> 100,> 100,> 100,> 100,> 100,> 100
O=C1C(CN2CCCC2)CCC1CN1CCCC1 (stereo not given),30.1,29,> 55.9,32.6,> 100,32.6,37.5,35.3,47.1,> 74.4
COc1ccc(Cc2nc3cc(C(F)(F)F)ccc3n2C[C@@H]2CCCN3CCCCC23)cc1 (stereo not given in full),20.7,8.88,24,20.4,12.3,6.77,30.3,28.1,30.1,37
CC(C)CCNC(=O)c1ccc(CNC(=O)/C=C/c2ccc3c(c2)-c2ccccc2C3)cc1,> 100,45.8,> 100,> 100,> 100,> 100,71.4,> 100,> 100,> 100
O=C(O)CN1CCN2CCOCCN(CC1)CCN(CC(=O)O)CC2,> 100,> 100,> 100,> 100,> 100,> 100,> 100,> 100,> 100,> 100
